Where a name gives a salt, the structure may show the parent alone.
How the values were obtained:
HCMV polymerase = molecular target: T1, HCMV polymerase (Human cytomegalovirus, UniProt P08546); test: HCMV polymerase scintillation proximity assay (modified version); assay type: biochemical; details: for IC50: modified SPA assay, compounds diluted in 100% DMSO, 4.5 mM DTT
T1 construct: made in house; host or cells: recombinant baculovirus-infected SF-9 cells
Method: (§1) The HCMV polymerase assay is performed using a scintillation proximity assay (SPA) as described in several references, such as N. D. Cook, et al., Pharmaceutical Manufacturing International, pages 49-53 (1992); K. Takeuchi, Laboratory Practice, September issue (1992); U.S. Pat. No. 4,568,649 (1986); which are incorporated by reference herein. Reactions are performed in 96-well plates. The assay is conducted in 100 μl volume with 5.4 mM HEPES (pH 7.5), 11.7 mM KCl, 4.5 mM MgCl2, 0.36 mg/ml BSA, and 90 nM ^3H-dTTP. Assays are run with and without CHAPS, (3-[(3-Cholamidopropyl)-dimethylammonio]-1-propane-sulfonate) at a final concentration of 2 mM. HCMV polymerase is diluted in enzyme dilution buffer containing 50% glycerol, 250 mM NaCl, 10 mM HEPES (pH 7.5), 100 μg/ml BSA, and 0.01% sodium azide. The HCMV polymerase, which is expressed in recombinant baculovirus-infected SF-9 cells and purified according to literature procedures, is added at 10% (or 10 μl) of the final reaction volume, i.e., 100 μl. Compounds are diluted in 50% DMSO and 10 μl are added to each well. Control wells contain an equivalent concentration of DMSO. Unless noted otherwise, reactions are initiated via the addition of 6 nM biotinylated poly(dA)-oligo(dT) template/primer to reaction mixtures containing the enzyme, substrate, and compounds of interest. Plates are incubated in a 25° C. or 37° C. H2O bath and terminated via the addition of 40 μl/reaction of 0.5 M EDTA (pH 8) per well. Reactions are terminated within the time-frame during which substrate incorporation is linear and varied depending upon the enzyme and conditions used, i.e., 30 min. for HCMV polymerase. Ten μl of streptavidin-SPA beads (20 mg/ml in PBS/10% glycerol) are added following termination of the reaction. Plates are incubated 10 min. at 37° C., then equilibrated to room temperature, and counted on a Packard Topcount. Linear regressions are performed and IC50's are calculated using computer software.
(§2) A modified version of the above HCMV polymerase assay is performed as described above, but with the following changes: Compounds are diluted in 100% DMSO until final dilution into assay buffer. In the previous assay, compounds are diluted in 50% DMSO. 4.5 mM dithiothreitol (DTT) is added to the polymerase buffer.

HSV polymerase = HSV polymerase (Human herpesvirus 1, UniProt P04293); test: HSV polymerase assay (Table 1); assay type: biochemical
VZV polymerase = VZV polymerase (Varicella-zoster virus, UniProt P09252); test: VZV polymerase assay (Table 1); assay type: biochemical
Method: [The source words this procedure for another target and says it was used here with some conditions changed.] as §1, §2

T1 sequence (P08546 whole entry): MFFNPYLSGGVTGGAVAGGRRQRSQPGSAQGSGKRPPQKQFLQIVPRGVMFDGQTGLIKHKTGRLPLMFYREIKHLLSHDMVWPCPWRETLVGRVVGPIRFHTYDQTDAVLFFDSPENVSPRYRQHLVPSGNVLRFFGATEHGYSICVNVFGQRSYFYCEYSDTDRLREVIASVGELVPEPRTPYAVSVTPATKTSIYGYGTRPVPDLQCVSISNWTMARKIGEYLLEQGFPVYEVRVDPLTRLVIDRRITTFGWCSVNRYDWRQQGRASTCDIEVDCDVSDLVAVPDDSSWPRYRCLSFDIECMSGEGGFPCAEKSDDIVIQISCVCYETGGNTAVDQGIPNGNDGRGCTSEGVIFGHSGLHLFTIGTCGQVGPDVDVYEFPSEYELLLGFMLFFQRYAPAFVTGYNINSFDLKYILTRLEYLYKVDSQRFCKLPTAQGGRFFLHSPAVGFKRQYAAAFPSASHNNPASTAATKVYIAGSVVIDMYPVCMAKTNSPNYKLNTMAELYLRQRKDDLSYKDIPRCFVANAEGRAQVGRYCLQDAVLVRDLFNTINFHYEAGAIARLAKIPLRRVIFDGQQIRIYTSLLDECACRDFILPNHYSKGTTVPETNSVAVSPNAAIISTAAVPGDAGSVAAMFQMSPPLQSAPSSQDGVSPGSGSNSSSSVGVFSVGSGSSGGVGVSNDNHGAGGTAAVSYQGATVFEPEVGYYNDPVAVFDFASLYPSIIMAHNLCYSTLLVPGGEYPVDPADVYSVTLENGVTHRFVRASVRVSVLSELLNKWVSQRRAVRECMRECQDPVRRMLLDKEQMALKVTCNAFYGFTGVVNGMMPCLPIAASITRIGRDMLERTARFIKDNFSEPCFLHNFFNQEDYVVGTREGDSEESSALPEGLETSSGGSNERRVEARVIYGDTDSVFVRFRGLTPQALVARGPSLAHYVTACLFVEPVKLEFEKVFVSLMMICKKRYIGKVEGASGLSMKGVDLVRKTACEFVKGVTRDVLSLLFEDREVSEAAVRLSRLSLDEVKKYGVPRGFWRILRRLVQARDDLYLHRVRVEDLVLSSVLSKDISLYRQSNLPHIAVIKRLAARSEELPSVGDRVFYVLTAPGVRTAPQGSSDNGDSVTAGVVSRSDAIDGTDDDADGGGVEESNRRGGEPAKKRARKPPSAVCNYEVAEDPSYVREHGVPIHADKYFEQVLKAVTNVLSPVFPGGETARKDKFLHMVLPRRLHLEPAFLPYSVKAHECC
Sequence of HSV polymerase (P04293 whole entry): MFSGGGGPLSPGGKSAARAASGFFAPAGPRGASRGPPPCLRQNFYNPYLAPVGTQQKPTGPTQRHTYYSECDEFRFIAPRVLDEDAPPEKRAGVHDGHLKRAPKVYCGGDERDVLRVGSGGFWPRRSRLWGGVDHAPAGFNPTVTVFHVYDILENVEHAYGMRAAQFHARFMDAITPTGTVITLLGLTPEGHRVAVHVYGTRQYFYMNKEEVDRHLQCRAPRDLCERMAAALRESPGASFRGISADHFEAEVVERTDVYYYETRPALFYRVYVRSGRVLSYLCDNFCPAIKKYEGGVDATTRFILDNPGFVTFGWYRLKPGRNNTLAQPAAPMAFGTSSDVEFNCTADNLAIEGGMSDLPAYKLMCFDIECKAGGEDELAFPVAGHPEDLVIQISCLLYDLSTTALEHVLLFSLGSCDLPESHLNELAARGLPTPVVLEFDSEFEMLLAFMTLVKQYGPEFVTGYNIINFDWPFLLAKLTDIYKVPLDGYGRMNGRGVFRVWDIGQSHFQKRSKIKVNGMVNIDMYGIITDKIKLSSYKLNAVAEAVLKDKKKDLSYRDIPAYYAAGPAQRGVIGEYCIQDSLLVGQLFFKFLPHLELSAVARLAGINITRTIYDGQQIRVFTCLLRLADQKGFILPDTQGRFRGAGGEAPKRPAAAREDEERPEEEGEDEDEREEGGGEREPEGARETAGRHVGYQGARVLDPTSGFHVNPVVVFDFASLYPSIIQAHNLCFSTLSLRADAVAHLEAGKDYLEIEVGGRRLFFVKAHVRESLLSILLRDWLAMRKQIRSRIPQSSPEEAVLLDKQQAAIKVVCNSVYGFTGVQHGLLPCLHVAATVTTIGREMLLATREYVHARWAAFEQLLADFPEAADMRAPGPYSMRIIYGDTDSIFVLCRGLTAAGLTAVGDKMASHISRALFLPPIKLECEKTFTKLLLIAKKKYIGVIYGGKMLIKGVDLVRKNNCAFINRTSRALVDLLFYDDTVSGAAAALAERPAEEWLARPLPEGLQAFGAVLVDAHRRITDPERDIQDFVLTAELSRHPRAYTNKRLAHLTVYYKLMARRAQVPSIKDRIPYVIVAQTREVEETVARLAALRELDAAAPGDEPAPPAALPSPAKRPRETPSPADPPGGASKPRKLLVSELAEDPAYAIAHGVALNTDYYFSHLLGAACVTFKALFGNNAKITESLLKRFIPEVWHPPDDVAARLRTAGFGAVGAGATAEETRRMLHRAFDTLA
Sequence of VZV polymerase (P09252 whole entry): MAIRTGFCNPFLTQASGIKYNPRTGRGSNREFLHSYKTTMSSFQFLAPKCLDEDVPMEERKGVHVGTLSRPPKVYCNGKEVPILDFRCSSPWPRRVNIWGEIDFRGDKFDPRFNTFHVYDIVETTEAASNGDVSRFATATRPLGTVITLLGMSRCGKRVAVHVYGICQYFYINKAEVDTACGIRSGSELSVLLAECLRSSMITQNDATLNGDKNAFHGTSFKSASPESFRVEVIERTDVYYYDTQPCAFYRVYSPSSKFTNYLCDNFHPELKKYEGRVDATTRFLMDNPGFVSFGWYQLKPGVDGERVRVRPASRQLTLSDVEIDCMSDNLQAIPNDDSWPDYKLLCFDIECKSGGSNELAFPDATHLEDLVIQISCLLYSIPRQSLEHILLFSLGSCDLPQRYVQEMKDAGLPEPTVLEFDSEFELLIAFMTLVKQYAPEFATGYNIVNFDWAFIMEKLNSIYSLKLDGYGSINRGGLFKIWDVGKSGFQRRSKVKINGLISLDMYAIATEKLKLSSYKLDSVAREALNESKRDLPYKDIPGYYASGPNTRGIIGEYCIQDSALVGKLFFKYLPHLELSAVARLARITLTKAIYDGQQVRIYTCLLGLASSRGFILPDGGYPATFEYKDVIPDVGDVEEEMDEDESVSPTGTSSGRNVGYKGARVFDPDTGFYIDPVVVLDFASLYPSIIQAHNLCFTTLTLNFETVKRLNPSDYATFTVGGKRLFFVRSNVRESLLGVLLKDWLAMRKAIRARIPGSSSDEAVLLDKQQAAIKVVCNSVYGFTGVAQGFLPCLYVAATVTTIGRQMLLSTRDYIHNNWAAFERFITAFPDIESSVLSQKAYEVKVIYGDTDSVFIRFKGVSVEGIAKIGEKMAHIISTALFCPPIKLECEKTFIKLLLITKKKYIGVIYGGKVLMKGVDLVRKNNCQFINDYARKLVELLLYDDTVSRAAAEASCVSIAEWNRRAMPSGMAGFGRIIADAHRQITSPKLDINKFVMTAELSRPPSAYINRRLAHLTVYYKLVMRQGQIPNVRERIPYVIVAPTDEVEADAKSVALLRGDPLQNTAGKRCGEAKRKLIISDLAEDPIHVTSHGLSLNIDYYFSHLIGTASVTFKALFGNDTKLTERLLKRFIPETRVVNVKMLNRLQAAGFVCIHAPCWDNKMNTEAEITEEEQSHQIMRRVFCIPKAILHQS

SMILES	melting point	IC50 (HCMV polymerase) [nM]	IC50 (HSV polymerase) [nM]	IC50 (VZV polymerase) [nM]	inhibition at 20 µM (HCMV polymerase; at 20 μM, read-out: Polymerase HCMV, percent inhibition at the given concentration) [%]
O=C(NCc1ccc(Cl)cc1)c1cn2c(=O)[nH]c3cc(CN4CCOCC4)cc(c1=O)c32 [Example 2, N-(4-Chlorobenzyl)-8-(4-morpholinylmethyl)-2,6-dioxo-1,2-dihydro-6H-imidazo[4,5,1-ij]quinoline-5-carboxamide]	–	770	740	520	–
O=C(NCc1ccc(Cl)cc1)c1cn2c3c(cc(C#CCO)cc3c1=O)CC2CO (stereo not shown) [Example 5, N-(4-Chlorobenzyl)-2-(hydroxymethyl)-8-(3-hydroxy-1-propynyl)-6-oxo-1,2-dihydro-6H-pyrrolo[3,2,1-ij]quinoline-5-carboxamide]	224 to 225 °C	3200	–	–	–
O=C1CCn2cc(C(=O)NCc3ccc(Cl)cc3)c(=O)c3cc(CN4CCOCC4)cc(c32)N1 [Example 9, N-(4-Chlorobenzyl)-10-(4-morpholinylmethyl)-2,8-dioxo-1,2,3,4-tetrahydro-8H-[1,4]diazepino[3,2,1-ij]quinoline-7-carboxamide]	–	670	280	170	–
CN1C(=O)Cn2cc(C(=O)NCc3ccc(Cl)cc3)c(=O)c3cc(C#CCO)cc1c32 [Example 11, N-(4-Chlorobenzyl)-9-(3-hydroxy-1-propynyl)-1-methyl-2,7-dioxo-2,3-dihydro-1H,7H-pyrido[1,2,3-de]quinoxaline-6-carboxamide]	–	1160	–	–	–
O=C(NCc1ccc(Cl)cc1)c1cn2c3c(cc(CN4CCOCC4)cc3c1=O)CN(Cc1ccccc1)C2 [Example 12, 2-Benzyl-N-(4-chlorobenzyl)-9-(4-morpholinylmethyl)-7-oxo-2,3-dihydro-1H,7H-pyrido[3,2,1-ij]quinazoline-6-carboxamide]	–	1670	–	–	–
O=C(NCc1ccc(Cl)cc1)c1cn2c3c(cc(CN4CCOCC4)cc3c1=O)CN(Cc1ccccc1)C2=O [Example 13, 2-Benzyl-N-(4-chlorobenzyl)-9-(4-morpholinylmethyl)-3,7-dioxo-2,3-dihydro-1H,7H-pyrido[3,2,1-ij]quinazoline-6-carboxamide]	–	–	–	–	39
O=C(NCc1ccc(Cl)cc1)c1cn2c3c(cc(CN4CCOCC4)cc3c1=O)CN(Cc1ccccc1)C(=O)C2 [Example 14, 2-Benzyl-N-(4-chlorobenzyl)-10-(4-morpholinylmethyl)-3,8-dioxo-1,2,3,4-tetrahydro-8H-[1,4]diazepino[6,7,1-ij]quinoline-7-carboxamide]	–	6000	–	–	–

Further lines, results first:

melting point	IC50 (HCMV polymerase) [nM]	IC50 (HSV polymerase) [nM]	IC50 (VZV polymerase) [nM]	inhibition at 20 µM (HCMV polymerase; at 20 μM, read-out: Polymerase HCMV, percent inhibition at the given concentration) [%]	SMILES
195 to 197 °C	650	–	–	–	O=C(NCc1ccc(Cl)cc1)c1cn2c3c(cc(CN4CCOCC4)cc3c1=O)OCCC2 [Example 1, N-(4-Chlorobenzyl)-10-(4-morpholinylmethyl)-8-oxo-3,4-dihydro-2H,8H-[1,4]oxazepino [2,3,4-ij]quinoline-7-carboxamide]
–	140	< 510	60	–	O=C1Cn2cc(C(=O)NCc3ccc(Cl)cc3)c(=O)c3cc(CN4CCOCC4)cc(c32)N1 [Example 3, N-(4-Chlorobenzyl)-9-(4-morpholinylmethyl)-2,7-dioxo-2,3-dihydro-1H,7H-pyrido[1,2,3-de]quinoxaline-6-carboxamide]
–	160	–	180	–	O=C(NCc1ccc(Cl)cc1)c1cn2c3c(cc(CN4CCOCC4)cc3c1=O)N=C(NCc1ccc(Cl)cc1)C2 [Example 4, N-(4-Chlorobenzyl)-2-[(4-chlorobenzyl)amino]-9-(4-morpholinylmethyl)-7-oxo-3H,7H-pyrido[1,2,3-de]quinoxaline-6-carboxamide]
228 °C (dec.)	4000	–	–	–	CC1(C)Cc2cc(C#CCO)cc3c(=O)c(C(=O)NCc4ccc(Cl)cc4)cn1c23 [Example 6, N-(4-Chlorobenzyl)-8-(3-hydroxyprop-1-ynyl)-2,2-dimethyl-6-oxo-1,2-dihydro-6H-pyrrolo[3,2,1-ij]quinoline-5-carboxamide]
200 to 201 °C	4000	–	–	–	O=C(NCc1ccc(Cl)cc1)c1cc2c3c(cc(CN4CCOCC4)cn3c1=O)CCC2 [Example 7, N-(4-Chlorobenzyl)-6-(morpholin-4-ylmethyl)-3-oxo-9,10dihydro-3H,8H-pyrido[3,2,1-ij]quinoline-2-carboxamide]
–	430	200	90	–	CC1C(=O)Nc2cc(CN3CCOCC3)cc3c(=O)c(C(=O)NCc4ccc(Cl)cc4)cn1c23 (stereo not shown) [Example 8, N-(4-Chlorobenzyl)-3-methyl-9-(4-morpholinylmethyl)-2,7-dioxo-2,3-dihydro-1H,7H-pyrido[1,2,3-de]quinoxaline-6-carboxamide hydrobromide]
235 to 240 °C	310	310	120	–	O=C(NCc1ccc(Cl)cc1)c1cn2c3c(cc(CN4CCOCC4)cc3c1=O)N=C(NCc1ccccc1)C2 [Example 10, 2-(Benzylamino)-N-(4-chlorobenzyl)-9-(4-morpholinylmethyl)-7-oxo-3H,7H-pyrido[1,2,3-de]quinoxaline-6-carboxamide]
231 to 233 °C	4190	–	–	–	CN1COc2cc(C#CCO)cc3c(=O)c(C(=O)NCc4ccc(Cl)cc4)cn1c23 [Example 15, N-(4-Chlorobenzyl)-9-(3-hydroxyprop-1-ynyl)-3-methyl-7-oxo-2,3-dihydro-7H-[1,3,4]oxadiazino[6,5,4-ij]quinoline-6-carboxamide]
165 to 167 °C	7950	–	–	–	CN1CCc2cc(C#CCO)cc3c(=O)c(C(=O)NCc4ccc(Cl)cc4)cn1c23 [Example 16, N-(4-Chlorobenzyl)-5-(3-hydroxyprop-1-ynyl)-1-methyl-7-oxo-2,3-dihydro-1H,7H-pyrido[3,2,1-ij]cinnoline-8-carboxamide]

From patent US6624159B2, “Heterocycle carboxamides as antiviral agents” (Pharmacia & Upjohn Company, priority 2000, dated 2003)
